# Measurements: the kinase profiling compilation of Christmann-Franck et al. (2016)
# Legend:
# Test in all cases: radiometric filter-binding kinase assay, Kinase HotSpot
# Conditions in all cases: compound 0.5 µM; ATP 10 µM
# ACVR1B (human) = ACVR1B (human) (UniProt P36896)
# ADRBK2 (human) = ADRBK2 (human) (UniProt P35626)
# AKT1 (human) = AKT1 (human) (UniProt P31749)
# BLK (human) = BLK (human) (UniProt P51451)
# BRSK2 (human) = BRSK2 (human) (UniProt Q8IWQ3)
# CAMK2D (human) = CAMK2D (human) (UniProt Q13557)
# CAMK2G (human) = CAMK2G (human) (UniProt Q13555)
# CDK1 CCNA2 (human) = CDK1 CCNA2 (human) (UniProt P06493+P20248)
# CDK2 CCNE1 (human) = CDK2 CCNE1 (human) (UniProt P24941+P24864)
# DAPK1 (human) = DAPK1 (human) (UniProt P53355)
# DAPK3 (human) = DAPK3 (human) (UniProt O43293)
# EPHA2 (human) = EPHA2 (human) (UniProt P29317)
# EPHA4 (human) = EPHA4 (human) (UniProt P54764)
# EPHB3 (human) = EPHB3 (human) (UniProt P54753)
# EPHB4 (human) = EPHB4 (human) (UniProt P54760)
# FER (human) = FER (human) (UniProt P16591)
# FGFR4 (human) = FGFR4 (human) (UniProt P22455)
# [1] = test system: FLT4 (human), P35916 [Q890H]
# HIPK3 (human) = HIPK3 (human) (UniProt Q9H422)
# IKBKB (human) = IKBKB (human) (UniProt O14920)
# INSR (human) = INSR (human) (UniProt P06213)
# KIT (human) = KIT (human) (UniProt P10721)
# MAP3K7 TAB1 (human) = MAP3K7 TAB1 (human) (UniProt O43318+Q15750)
# MAPK12 (human) = MAPK12 (human) (UniProt P53778)
# MATK (human) = MATK (human) (UniProt P42679)
# MST1R (human) = MST1R (human) (UniProt Q04912)
# MYLK (human) = MYLK (human) (UniProt Q15746)
# NEK1 (human) = NEK1 (human) (UniProt Q96PY6)
# NEK4 (human) = NEK4 (human) (UniProt P51957)
# NTRK1 (human) = NTRK1 (human) (UniProt P04629)
# PAK1 (human) = PAK1 (human) (UniProt Q13153)
# PIM2 (human) = PIM2 (human) (UniProt Q9P1W9)
# PRKCG (human) = PRKCG (human) (UniProt P05129)
# RET (human) = RET (human) (UniProt P07949)
# ROCK2 (human) = ROCK2 (human) (UniProt O75116)
# RPS6KA3 KD1 KD2 (human) = RPS6KA3 KD1 KD2 (human) (UniProt P51812)
# RPS6KA6 KD1 KD2 (human) = RPS6KA6 KD1 KD2 (human) (UniProt Q9UK32)
# SLK (human) = SLK (human) (UniProt Q9H2G2)
# STK39 (human) = STK39 (human) (UniProt Q9UEW8)
# TEC (human) = TEC (human) (UniProt P42680)
# TEK (human) = TEK (human) (UniProt Q02763)
# ULK1 (human) = ULK1 (human) (UniProt O75385)
# Sequence of MYLK (human) (Q15746 whole entry, looked up): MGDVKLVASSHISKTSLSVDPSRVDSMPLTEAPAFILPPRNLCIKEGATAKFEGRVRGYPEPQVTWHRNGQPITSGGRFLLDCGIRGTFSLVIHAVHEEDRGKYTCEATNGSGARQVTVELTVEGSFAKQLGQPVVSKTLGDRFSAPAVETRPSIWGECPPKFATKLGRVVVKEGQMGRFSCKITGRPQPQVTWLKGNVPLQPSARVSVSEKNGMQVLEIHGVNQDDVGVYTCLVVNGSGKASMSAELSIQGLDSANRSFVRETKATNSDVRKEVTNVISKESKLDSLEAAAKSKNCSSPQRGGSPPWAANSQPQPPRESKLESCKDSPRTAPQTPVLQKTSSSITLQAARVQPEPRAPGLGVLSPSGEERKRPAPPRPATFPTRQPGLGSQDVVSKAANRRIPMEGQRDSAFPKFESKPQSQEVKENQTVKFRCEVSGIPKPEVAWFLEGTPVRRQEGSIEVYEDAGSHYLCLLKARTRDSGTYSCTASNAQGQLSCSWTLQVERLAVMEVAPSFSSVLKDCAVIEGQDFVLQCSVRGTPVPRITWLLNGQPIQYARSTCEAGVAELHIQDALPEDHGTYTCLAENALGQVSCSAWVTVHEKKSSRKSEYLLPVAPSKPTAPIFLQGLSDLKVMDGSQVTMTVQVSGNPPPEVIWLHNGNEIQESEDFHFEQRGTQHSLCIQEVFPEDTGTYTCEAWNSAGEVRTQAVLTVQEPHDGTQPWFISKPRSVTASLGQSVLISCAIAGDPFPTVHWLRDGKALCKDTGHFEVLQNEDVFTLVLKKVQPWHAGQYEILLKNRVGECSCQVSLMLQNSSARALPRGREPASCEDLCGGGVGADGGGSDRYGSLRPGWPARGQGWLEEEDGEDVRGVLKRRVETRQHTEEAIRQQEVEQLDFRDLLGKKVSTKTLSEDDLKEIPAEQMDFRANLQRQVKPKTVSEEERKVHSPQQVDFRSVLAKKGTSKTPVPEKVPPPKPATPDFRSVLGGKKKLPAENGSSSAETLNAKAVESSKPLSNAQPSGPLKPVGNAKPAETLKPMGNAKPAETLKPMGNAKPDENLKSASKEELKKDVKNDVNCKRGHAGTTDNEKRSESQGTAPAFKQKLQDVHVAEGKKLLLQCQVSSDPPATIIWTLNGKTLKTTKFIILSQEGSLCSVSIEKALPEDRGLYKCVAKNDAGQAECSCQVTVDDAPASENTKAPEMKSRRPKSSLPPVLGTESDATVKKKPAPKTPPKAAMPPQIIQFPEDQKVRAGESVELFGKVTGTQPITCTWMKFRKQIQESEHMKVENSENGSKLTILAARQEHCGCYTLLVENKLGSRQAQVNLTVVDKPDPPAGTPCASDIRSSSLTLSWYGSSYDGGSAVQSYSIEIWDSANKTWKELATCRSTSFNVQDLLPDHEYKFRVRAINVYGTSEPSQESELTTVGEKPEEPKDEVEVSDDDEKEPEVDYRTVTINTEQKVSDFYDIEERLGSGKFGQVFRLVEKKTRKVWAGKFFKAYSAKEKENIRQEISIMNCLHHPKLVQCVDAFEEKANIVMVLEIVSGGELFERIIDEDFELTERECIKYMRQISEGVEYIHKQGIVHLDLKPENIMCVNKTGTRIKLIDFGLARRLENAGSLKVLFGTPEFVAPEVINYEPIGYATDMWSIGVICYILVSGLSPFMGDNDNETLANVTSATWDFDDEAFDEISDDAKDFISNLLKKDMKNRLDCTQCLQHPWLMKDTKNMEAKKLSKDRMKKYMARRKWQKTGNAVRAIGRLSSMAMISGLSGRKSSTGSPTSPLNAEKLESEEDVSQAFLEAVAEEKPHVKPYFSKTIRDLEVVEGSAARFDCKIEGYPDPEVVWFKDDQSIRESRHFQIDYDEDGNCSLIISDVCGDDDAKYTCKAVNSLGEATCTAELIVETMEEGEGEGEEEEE
# Sequence of HIPK3 (human) (Q9H422 whole entry, looked up): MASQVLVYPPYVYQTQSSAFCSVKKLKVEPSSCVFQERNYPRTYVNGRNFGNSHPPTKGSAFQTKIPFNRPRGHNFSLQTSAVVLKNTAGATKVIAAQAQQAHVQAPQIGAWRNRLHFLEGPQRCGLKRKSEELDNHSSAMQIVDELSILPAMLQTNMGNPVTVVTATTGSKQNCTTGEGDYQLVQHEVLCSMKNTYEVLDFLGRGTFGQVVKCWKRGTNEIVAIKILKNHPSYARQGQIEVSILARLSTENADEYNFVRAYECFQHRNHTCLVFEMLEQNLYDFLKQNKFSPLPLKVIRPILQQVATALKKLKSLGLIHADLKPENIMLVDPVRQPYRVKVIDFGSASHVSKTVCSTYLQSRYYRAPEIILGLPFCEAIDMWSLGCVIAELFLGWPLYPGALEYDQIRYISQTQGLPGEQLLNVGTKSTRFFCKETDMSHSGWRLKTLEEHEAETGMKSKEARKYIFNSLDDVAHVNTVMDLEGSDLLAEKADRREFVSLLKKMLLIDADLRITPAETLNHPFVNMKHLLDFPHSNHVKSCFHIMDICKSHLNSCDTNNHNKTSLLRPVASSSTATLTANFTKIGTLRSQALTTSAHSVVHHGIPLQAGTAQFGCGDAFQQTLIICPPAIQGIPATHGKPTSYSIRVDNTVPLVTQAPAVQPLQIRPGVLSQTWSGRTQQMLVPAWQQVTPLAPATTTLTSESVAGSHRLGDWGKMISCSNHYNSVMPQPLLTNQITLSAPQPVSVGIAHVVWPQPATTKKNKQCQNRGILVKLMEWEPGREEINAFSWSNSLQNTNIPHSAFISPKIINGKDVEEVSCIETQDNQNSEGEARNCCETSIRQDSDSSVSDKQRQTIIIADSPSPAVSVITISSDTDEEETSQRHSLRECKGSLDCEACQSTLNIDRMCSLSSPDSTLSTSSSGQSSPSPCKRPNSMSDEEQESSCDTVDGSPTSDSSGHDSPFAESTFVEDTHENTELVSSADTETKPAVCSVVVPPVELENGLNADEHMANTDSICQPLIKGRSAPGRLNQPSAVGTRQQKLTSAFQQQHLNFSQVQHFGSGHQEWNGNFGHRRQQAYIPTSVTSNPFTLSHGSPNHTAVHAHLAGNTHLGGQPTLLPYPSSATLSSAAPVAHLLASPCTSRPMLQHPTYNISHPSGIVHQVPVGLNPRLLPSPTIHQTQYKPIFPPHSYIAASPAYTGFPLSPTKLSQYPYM
# Sequence of MAP3K7 TAB1 (human) (O43318 whole entry, looked up): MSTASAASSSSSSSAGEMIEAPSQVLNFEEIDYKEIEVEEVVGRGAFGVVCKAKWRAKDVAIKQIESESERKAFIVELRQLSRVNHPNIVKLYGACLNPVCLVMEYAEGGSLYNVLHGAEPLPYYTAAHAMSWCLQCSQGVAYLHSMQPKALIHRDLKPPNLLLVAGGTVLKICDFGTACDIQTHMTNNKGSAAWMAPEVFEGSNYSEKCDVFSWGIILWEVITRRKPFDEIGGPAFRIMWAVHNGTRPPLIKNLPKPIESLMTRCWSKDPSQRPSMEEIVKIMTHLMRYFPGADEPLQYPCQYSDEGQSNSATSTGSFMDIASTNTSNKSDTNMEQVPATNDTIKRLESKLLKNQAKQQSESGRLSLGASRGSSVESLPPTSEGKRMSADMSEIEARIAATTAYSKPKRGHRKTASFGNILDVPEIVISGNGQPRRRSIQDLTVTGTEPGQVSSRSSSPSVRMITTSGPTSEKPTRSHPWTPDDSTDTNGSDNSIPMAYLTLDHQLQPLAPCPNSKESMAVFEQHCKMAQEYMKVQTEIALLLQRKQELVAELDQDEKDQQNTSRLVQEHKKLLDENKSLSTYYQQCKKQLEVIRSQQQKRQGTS
# Sequence of MAP3K7 TAB1 (human) (Q15750 whole entry, looked up): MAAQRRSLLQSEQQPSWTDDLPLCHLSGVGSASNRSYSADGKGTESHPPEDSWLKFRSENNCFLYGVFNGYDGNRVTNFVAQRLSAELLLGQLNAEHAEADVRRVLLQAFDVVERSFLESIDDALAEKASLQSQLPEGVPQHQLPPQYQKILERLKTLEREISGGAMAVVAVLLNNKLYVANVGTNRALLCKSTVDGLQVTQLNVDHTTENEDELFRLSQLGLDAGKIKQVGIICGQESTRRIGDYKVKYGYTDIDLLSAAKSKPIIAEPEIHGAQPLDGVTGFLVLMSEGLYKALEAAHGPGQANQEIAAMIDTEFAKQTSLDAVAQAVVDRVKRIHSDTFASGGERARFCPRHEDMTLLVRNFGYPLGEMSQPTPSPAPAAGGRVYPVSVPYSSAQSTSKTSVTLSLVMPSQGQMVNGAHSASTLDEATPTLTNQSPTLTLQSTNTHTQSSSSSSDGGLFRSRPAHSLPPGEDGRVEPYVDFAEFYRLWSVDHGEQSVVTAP
# Sequence of NTRK1 (human) (P04629 whole entry, looked up): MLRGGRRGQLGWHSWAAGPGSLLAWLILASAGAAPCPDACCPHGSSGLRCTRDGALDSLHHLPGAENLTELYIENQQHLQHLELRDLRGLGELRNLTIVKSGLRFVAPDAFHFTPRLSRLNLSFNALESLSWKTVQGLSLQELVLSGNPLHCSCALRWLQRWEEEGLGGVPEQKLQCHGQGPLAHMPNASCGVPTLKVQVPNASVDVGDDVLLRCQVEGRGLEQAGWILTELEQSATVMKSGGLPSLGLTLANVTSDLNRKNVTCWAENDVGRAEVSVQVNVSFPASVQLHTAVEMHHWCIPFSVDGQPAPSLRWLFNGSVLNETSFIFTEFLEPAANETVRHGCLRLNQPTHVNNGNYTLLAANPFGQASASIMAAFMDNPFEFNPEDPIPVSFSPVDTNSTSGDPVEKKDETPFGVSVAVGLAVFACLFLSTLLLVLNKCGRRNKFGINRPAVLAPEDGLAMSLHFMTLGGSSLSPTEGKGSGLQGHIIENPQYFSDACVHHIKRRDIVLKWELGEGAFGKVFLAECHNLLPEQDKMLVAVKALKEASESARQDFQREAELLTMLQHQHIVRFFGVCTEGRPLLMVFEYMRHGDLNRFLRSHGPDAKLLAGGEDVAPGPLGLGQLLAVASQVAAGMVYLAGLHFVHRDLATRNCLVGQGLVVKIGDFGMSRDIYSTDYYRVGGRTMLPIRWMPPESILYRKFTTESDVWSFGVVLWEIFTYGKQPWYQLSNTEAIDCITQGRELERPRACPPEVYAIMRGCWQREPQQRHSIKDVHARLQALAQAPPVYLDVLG
smiles,measurement,setting,value
CN(C)c1ccc(/C=C2\C(=O)Nc3ccccc32)cc1,residual activity,ACVR1B (human),93.4%
same,residual activity,ADRBK2 (human),98.9%
same,residual activity,AKT1 (human),101%
same,residual activity,BLK (human),99.2%
same,residual activity,BRSK2 (human),93%
same,residual activity,CAMK2D (human),96.4%
same,residual activity,CAMK2G (human),99.6%
same,residual activity,CDK1 CCNA2 (human),96.9%
same,residual activity,CDK2 CCNE1 (human),97.1%
same,residual activity,DAPK1 (human),92.2%
same,residual activity,DAPK3 (human),101%
same,residual activity,EPHA2 (human),107%
same,residual activity,EPHA4 (human),95.2%
same,residual activity,EPHB3 (human),94.9%
same,residual activity,EPHB4 (human),97.4%
same,residual activity,FER (human),94.5%
same,residual activity,FGFR4 (human),97.4%
same,residual activity,[1],98.8%
same,residual activity,HIPK3 (human),94.4%
same,residual activity,IKBKB (human),105%
same,residual activity,INSR (human),93.4%
same,residual activity,KIT (human),45.6%
same,residual activity,MAP3K7 TAB1 (human),100%
same,residual activity,MAPK12 (human),102%
same,residual activity,MATK (human),95.3%
same,residual activity,MST1R (human),106%
same,residual activity,MYLK (human),90.5%
same,residual activity,NEK1 (human),112%
same,residual activity,NEK4 (human),102%
same,residual activity,NTRK1 (human),96.6%
same,residual activity,PAK1 (human),95.7%
same,residual activity,PIM2 (human),82.4%
same,residual activity,PRKCG (human),96.8%
same,residual activity,RET (human),78%
same,residual activity,ROCK2 (human),95.2%
same,residual activity,RPS6KA3 KD1 KD2 (human),92.6%
same,residual activity,RPS6KA6 KD1 KD2 (human),93.9%
same,residual activity,SLK (human),103%
same,residual activity,STK39 (human),96.6%
same,residual activity,TEC (human),103%
same,residual activity,TEK (human),102%
same,residual activity,ULK1 (human),91.9%
COc1ccc2c(c1)c(C1=C(c3c[nH]c4ccccc34)C(=O)NC1=O)cn2CCCN(C)C,residual activity,ACVR1B (human),111%
same,residual activity,ADRBK2 (human),96.3%
same,residual activity,AKT1 (human),99%
same,residual activity,BLK (human),78.8%
same,residual activity,BRSK2 (human),61.3%
same,residual activity,CAMK2D (human),74.8%
same,residual activity,CAMK2G (human),91.1%
same,residual activity,CDK1 CCNA2 (human),95.7%
same,residual activity,CDK2 CCNE1 (human),97.9%
same,residual activity,DAPK1 (human),105%
same,residual activity,DAPK3 (human),75.5%
same,residual activity,EPHA2 (human),91.3%
same,residual activity,EPHA4 (human),94.5%
same,residual activity,EPHB3 (human),97%
same,residual activity,EPHB4 (human),94.2%
same,residual activity,FER (human),70.9%
same,residual activity,FGFR4 (human),79.2%
same,residual activity,[1],23.6%
same,residual activity,HIPK3 (human),74.1%
same,residual activity,IKBKB (human),99.6%
same,residual activity,INSR (human),94.1%
same,residual activity,KIT (human),88.8%
same,residual activity,MAP3K7 TAB1 (human),102%
same,residual activity,MAPK12 (human),84.8%
same,residual activity,MATK (human),99.3%
same,residual activity,MST1R (human),91.3%
same,residual activity,MYLK (human),66.9%
same,residual activity,NEK1 (human),94.7%
same,residual activity,NEK4 (human),90.7%
same,residual activity,NTRK1 (human),83.1%
same,residual activity,PAK1 (human),87.4%
same,residual activity,PIM2 (human),90.5%
same,residual activity,PRKCG (human),54%
same,residual activity,RET (human),79.9%
same,residual activity,ROCK2 (human),89.2%
same,residual activity,RPS6KA3 KD1 KD2 (human),6.55%
same,residual activity,RPS6KA6 KD1 KD2 (human),4.52%
same,residual activity,SLK (human),69.4%
same,residual activity,STK39 (human),111%
same,residual activity,TEC (human),97.9%
same,residual activity,TEK (human),102%
same,residual activity,ULK1 (human),99%
